Target: T1, KRAS G12C 1-169, his-tagged protein, GDP-loaded (Homo sapiens, UniProt P01116, G12C)
T1 construct: KRAS G12C 1-169, his-tagged protein, GDP-loaded
Test: Covalent binding (% modification) to KRAS G12C by mass spectrometry; note: test concentration or dose not given here
Conditions: % modification at 10 min (footnote †)

Row | SMILES | Binding %
1 | CC#CC(=O)N1C[C@H](C)N(c2nc(N3CC(N(C)C)C3)nc3c(F)c(-c4c(O)cccc4F)c(Cl)cc23)C[C@H]1C [Compound 114, 1-((2R,5S)-4-(6-chloro-2-(3-(dimethylamino)azetidin-1-yl)-8-fluoro-7-(2-fluoro-6-hydroxyphenyl)quinazolin-4-yl)-2,5-dimethyl-piperazin-1-yl) but-2-yn-1-one] | + (+ indicates binding activity greater than 0% and up to 50%)

Same assay, conditions: covalent binding to KRAS G12C after a ten minute incubation period

Row | SMILES | Binding %
2 | C=CC(=O)N1C[C@H](C)N(c2nc(N3CC(N(C)C)C3)nc3c(F)c(-c4c(C)ccc5[nH]ncc45)c(Cl)cc23)C[C@H]1C [Compound 54, 1-((2R,5S)-4-(6-chloro-2-(3-(dimethylamino)azetidin-1-yl)-8-fluoro-7-(5-methyl-1H-indazol-4-yl)quinazolin-4-yl)-2,5-dimethyl-piperazin-1-yl) prop-2-en-1-one] | +++ (+++ indicates binding activity greater than 90%)
3 | C=CC(=O)N1[C@H](C)CN(c2nc(N3CC(N(C)C)C3)nc3c(F)c(-c4c(O)cccc4F)c(Cl)cc23)C[C@@H]1C [Compound 26, 1-((2R,6S)-4-(6-chloro-2-(3-(dimethylamino)azetidin-1-yl)-8-fluoro-7-(2-fluoro-6-hydroxyphenyl)quinazolin-4-yl)-2,6-dimethyl-piperazin-1-yl) prop-2-en-1-one] | ++ (++ indicates binding activity from 50 to 90%)
4 | C=CC(=O)N1C[C@H](C)N(c2nc(OCCN(CC)CC)nc3c(F)c(-c4c(O)cccc4F)c(Cl)cc23)C[C@H]1C (atropisomer, axis not shown) [Compound 75, 1-((2R,5S)-4-((S)-6-chloro-2-(2-(diethylamino)ethoxy)-8-fluoro-7-(2-fluoro-6-hydroxyphenyl)quinazolin-4-yl)-2,5-dimethyl-piperazin-1-yl) prop-2-en-1-one] | +++ (+++ indicates binding activity greater than 90%)
5 | C=CC(=O)N1C[C@H](C)N(c2nc(OCCN(CC)CC)nc3c(F)c(-c4c(O)cccc4F)c(Cl)cc23)C[C@H]1C (atropisomer, axis not shown) [Compound 74, 1-((2R,5S)-4-((R)-6-chloro-2-(2-(diethylamino)ethoxy)-8-fluoro-7-(2-fluoro-6-hydroxyphenyl)quinazolin-4-yl)-2,5-dimethyl-piperazin-1-yl) prop-2-en-1-one] | + (+ indicates binding activity up to 50%)
6 | C=CC(=O)N1[C@H](C)CN(c2nc(NC3CCN(C4CC4)CC3)nc3c(F)c(-c4c(C)ccc5[nH]ncc45)c(Cl)cc23)C[C@@H]1C [Compound 33, 1-((2R,6S)-4-(6-chloro-2-((1-cyclopropyl-piperidin-4-yl)amino)-8-fluoro-7-(5-methyl-1H-indazol-4-yl)quinazolin-4-yl)-2,6-dimethyl-piperazin-1-yl) prop-2-en-1-one] | ++ (++ indicates binding activity from 50 to 90%)
7 | C=CC(=O)N1C[C@@H](C)N(c2nc(N)nc3c(F)c(-c4c(O)cccc4F)c(Cl)cc23)[C@@H](C)C1 [Compound 17, 1-((3S,5R)-4-(2-amino-6-chloro-8-fluoro-7-(2-fluoro-6-hydroxyphenyl)quinazolin-4-yl)-3,5-dimethylpiperazin-1-yl)prop-2-en-1-one] | ++ (++ indicates binding activity from 50 to 90%)
8 | C=CC(=O)N1[C@H](C)CN(c2nc(OCCN3CC(F)(F)C3)nc3c(F)c(-c4c(O)cccc4F)c(Cl)cc23)C[C@@H]1C [Compound 32, 1-((2R,6S)-4-(6-chloro-2-(2-(3,3-difluoroazetidin-1-yl)ethoxy)-8-fluoro-7-(2-fluoro-6-hydroxyphenyl)quinazolin-4-yl)-2,6-dimethyl-piperazin-1-yl) prop-2-en-1-one] | +++ (+++ indicates binding activity greater than 90%)

Same assay, conditions: covalent binding to KRAS G12C after a three minute incubation period

Row | SMILES | Binding %
9 | C=CC(=O)N1C[C@H](C)N(c2nc(OCCN3CCC(F)(F)C3)nc3c(F)c(-c4c(C)ccc5cn[nH]c45)c(Cl)cc23)C[C@H]1C [Compound 202, 1-((2R,5S)-4-(6-chloro-2-(2-(3,3-difluoro-pyrrolidin-1-yl)ethoxy)-8-fluoro-7-(6-methyl-1H-indazol-7-yl)quinazolin-4-yl)-2,5-dimethyl-piperazin-1-yl) prop-2-en-1-one] | +++ (+++ indicates binding activity greater than 90%)
10 | C=CC(=O)N1C[C@H](C)N(c2nc(N3CC4(CCN4C)C3)nc3c(F)c(-c4c(O)cccc4F)c(Cl)cc23)C[C@H]1C [Compound 184, 1-((2R,5S)-4-(6-chloro-8-fluoro-7-(2-fluoro-6-hydroxyphenyl)-2-(1-methyl-1,6-diazaspiro[3.3]heptan-6-yl)quinazolin-4-yl)-2,5-dimethyl-piperazin-1-yl) prop-2-en-1-one] | ++ (++ indicates binding activity from 50 to 90%)
11 | C=CC(=O)N1C[C@H](C)N(c2nc(N3CC4(CCCN4C)C3)nc3c(F)c(-c4c(O)cccc4F)c(Cl)cc23)C[C@H]1C [Compound 177, 1-((2R,5S)-4-(6-chloro-8-fluoro-7-(2-fluoro-6-hydroxyphenyl)-2-(5-methyl-2,5-diazaspiro[3.4]octan-2-yl)quinazolin-4-yl)-2,5-dimethyl-piperazin-1-yl) prop-2-en-1-one] | ++ (++ indicates binding activity from 50 to 90%)
12 | C=CC(=O)N1CCN(c2nc(N3CC(C)(N(C)C)C3)nc3c(F)c(-c4c(O)cccc4F)c(Cl)cc23)[C@@H](C)C1 [Compound 153, 1-((3S)-4-(6-chloro-2-(3-(dimethylamino)-3-methylazetidin-1-yl)-8-fluoro-7-(2-fluoro-6-hydroxyphenyl)quinazolin-4-yl)-3-methyl-piperazin-1-yl) prop-2-en-1-one] | +++ (+++ indicates binding activity greater than 90%)
13 | C=CC(=O)N1CCN(c2nc(N3CC(N(CC)CC)C3)nc3c(F)c(-c4c(C)ccc5[nH]ncc45)c(Cl)cc23)[C@@H](C)C1 [Compound 167, 1-((3S)-4-(6-chloro-2-(3-(diethylamino)azetidin-1-yl)-8-fluoro-7-(5-methyl-1H-indazol-4-yl)quinazolin-4-yl)-3-methyl-piperazin-1-yl) prop-2-en-1-one] | +++ (+++ indicates binding activity greater than 90%)
14 | C=CC(=O)N1C[C@H](C)N(c2nc(N3CC(N(C)C)C3)nc3c(F)c(-c4cc(B5OC(C)(C)C(C)(C)O5)cc5ccccc45)c(Cl)cc23)C[C@H]1C [Compound 179, 1-((2R,5S)-4-(6-chloro-2-(3-(dimethylamino)azetidin-1-yl)-8-fluoro-7-(3-(4,4,5,5-tetramethyl-1,3,2-dioxaborolan-2-yl)naphthalen-1-yl)quinazolin-4-yl)-2,5-dimethyl-piperazin-1-yl) prop-2-en-1-one] | + (+ indicates binding activity greater than 0% and up to 50%)
15 | C=CC(=O)N1C[C@H](C)N(c2nc(OCCCN3CCC(F)(F)C3)nc3c(F)c(-c4c(O)cccc4F)c(Cl)cc23)C[C@H]1C [Compound 230, 1-((2R,5S)-4-(6-chloro-2-(3-(3,3-difluoropyrrolidin-1-yl)propoxy)-8-fluoro-7-(2-fluoro-6-hydroxyphenyl)quinazolin-4-yl)-2,5-dimethyl-piperazin-1-yl) prop-2-en-1-one] | ++ (++ indicates binding activity from 50 to 90%)
16 | C=CC(=O)N1C[C@H](C)N(c2nc(N3CC(N(C)C4CCC4)C3)nc3c(F)c(-c4c(O)cccc4F)c(Cl)cc23)C[C@H]1C [Compound 110, 1-((2R,5S)-4-(6-chloro-2-(3-(cyclobutyl (methyl)amino)azetidin-1-yl)-8-fluoro-7-(2-fluoro-6-hydroxyphenyl)quinazolin-4-yl)-2,5-dimethyl-piperazin-1-yl) prop-2-en-1-one] | ++ (++ indicates binding activity from 50 to 90%)
17 | C=CC(=O)N1C[C@H](C)N(c2nc(N3CC(N(C)C)C3)nc3c(F)c(-c4ccccc4F)c(Cl)cc23)C[C@H]1C [Compound 132, 1-((2R,5S)-4-(6-chloro-2-(3-(dimethylamino)azetidin-1-yl)-8-fluoro-7-(2-fluorophenyl)quinazolin-4-yl)-2,5-dimethyl-piperazin-1-yl) prop-2-en-1-one] | ++ (++ indicates binding activity from 50 to 90%)
18 | C=CC(=O)N1C[C@H](C)N(c2nc(N3CC(N(C)C)C3)nc3c(F)c(-c4c(O)ccc5ccccc45)c(Cl)cc23)C[C@H]1C [Compound 211, 1-((2R,5S)-4-(6-chloro-2-(3-(dimethylamino)azetidin-1-yl)-8-fluoro-7-(2-hydroxynaphthalen-1-yl)quinazolin-4-yl)-2,5-dimethyl-piperazin-1-yl) prop-2-en-1-one] | ++ (++ indicates binding activity from 50 to 90%)
19 | C=CC(=O)N1C[C@H](C)N(c2nc(NC3CCN(C4CC4)CC3)nc3c(F)c(-c4c(C)ccc5cn[nH]c45)c(Cl)cc23)C[C@H]1C [Compound 145, 1-((2R,5S)-4-(6-chloro-2-((1-cyclopropyl-piperidin-4-yl)amino)-8-fluoro-7-(6-methyl-1H-indazol-7-yl)quinazolin-4-yl)-2,5-dimethyl-piperazin-1-yl) prop-2-en-1-one] | ++ (++ indicates binding activity from 50 to 90%)
20 | C=CC(=O)N1C[C@H](C)N(c2nc(N3CC(N(C)C4CC4)C3)nc3c(F)c(-c4c(C)ccc5[nH]ncc45)c(Cl)cc23)C[C@H]1C [Compound 134, 1-((2R,5S)-4-(6-chloro-2-(3-(cyclopropyl (methyl)amino)azetidin-1-yl)-8-fluoro-7-(5-methyl-1H-indazol-4-yl)quinazolin-4-yl)-2,5-dimethyl-piperazin-1-yl) prop-2-en-1-one] | ++ (++ indicates binding activity from 50 to 90%)
21 | [2H]C([2H])([2H])N(C1CN(c2nc(N3C[C@@H](C)N(C(=O)C=C)C[C@@H]3C)c3cc(Cl)c(-c4c(C)ccc5[nH]ncc45)c(F)c3n2)C1)C([2H])([2H])[2H] (atropisomer, axis not shown) [Compound 226, 1-((2R,5S)-4-(6-chloro-2-(3-(bis(triduetero-methyl)amino)azetidin-1-yl)-8-fluoro-7-((R)-5-methyl-1H-indazol-4-yl)quinazolin-4-yl)-2,5-dimethyl-piperazin-1-yl) prop-2-en-1-one] | +++ (+++ indicates binding activity greater than 90%)

— patent US10646488B2 (Araxes Pharma LLC, priority 2016, dated 2020)
